# “Also recorded” adds a separate entry of the source.
# System: myocardial ischemia-reperfusion injury
# Experiment: Myocardial infarct size following ischemia and reperfusion (30 min LAD occlusion, 3 h reperfusion)
# Format: in vivo, rabbit
# Details: FIGS. 4A, 4B, 5A, 5B
# Method: These experiments were designed to characterize the effects of different HVAs (enflurane, isoflurane, sevoflurane, and desflurane) administered intravenously in an emulsion on myocardial infarct size following ischemia and reperfusion in rabbits.
# Male New Zealand white rabbits weighing between 2.5 and 3.0 kg were anesthetized with intravenous sodium pentobarbital (30 mg/kg). Additional doses of pentobarbital were titrated as required to assure that pedal and palpebral reflexes were absent throughout the experiment. A tracheotomy was performed through a ventral midline incision, and the trachea was cannulated. The rabbits were ventilated with positive pressure using an air-oxygen mixture (FiO2=0.33). Arterial blood gas tensions and acid-base status were maintained within a normal physiological range (pH 7.35-7.45, PaCO2 25-40 mmHg, and PaO2 90-150 mmHg) by adjusting the respiratory rate or tidal volume. Body temperature was maintained with a heating blanket. Heparin-filled catheters were inserted into the right carotid artery and the left jugular vein for measurement of arterial blood pressure and fluid or drug administration, respectively. Maintenance fluids consisted of 0.9% saline (15 ml/kg/h) that were continued for the duration of the experiment.
# A left thoracotomy was performed at the fourth intercostal space, and the heart was suspended in a pericardial cradle. A prominent branch of the left anterior descending coronary artery (LAD) was selected, and a silk ligature was placed around this artery approximately halfway between the base and apex for the production of coronary artery occlusion and reperfusion in myocardial infarct size experiments. Each rabbit was anticoagulated with 500 U of heparin immediately before LAD occlusion. Coronary artery occlusion was verified by the presence of epicardial cyanosis and regional dyskinesia in the ischemic zone, and reperfusion was confirmed by observing an epicardial hyperemic response. Hemodynamics were continuously recorded on a polygraph throughout experimentation. After the surgical preparation, 30 min of stabilization were allowed.
# (§1) The experimental design for the experiments is illustrated in FIG. 1. Rabbits were randomly assigned to one of six experimental groups: a control group (0.9% saline infusion), a vehicle group (drug lipid vehicle), or one of four anesthetic groups (emulsified desflurane, isoflurane, enflurane, or sevoflurane). The vials of anesthetics were stored at 4° C. as prepared in Example 1. After opening, the vial was left in a water bath at 37° C. for 2 h. Anesthetics were directly poured into the syringe without using negative pressure suction.
# (§2) Baseline measurements of systemic hemodynamics, arterial blood gas tensions, and blood concentrations of anesthetic agent were performed 30 min after instrumentation was completed. Rabbits received 0.9% saline, drug lipid vehicle (10 ml/h), or intravenous volatile anesthetic (10 ml/h) for 30 min. Infusions were discontinued 30 min prior to coronary occlusion (memory period). Blood concentrations of anesthetic agents were performed at baseline, at the end of anesthetic infusion, and at the end of the memory period just before coronary occlusion). HVA concentrations in blood were determined by gas chromatographic (GC) analysis. All rabbits underwent a 30 min LAD occlusion followed by 3 h reperfusion.
# At the end of each experiment, the LAD was reoccluded and 3 ml of Patent blue dye was injected intravenously. The left ventricular area at risk for infarction was separated from surrounding normal areas (stained blue), and the two regions were incubated at 37° C. for 20 to 30 min in 1% 2,3,5-triphenyltetrazolium chloride in 0.1 M phosphate buffer adjusted to pH 7.4. After overnight storage in 10% formaldehyde, infarcted and noninfarcted myocardium within the area at risk were carefully separated and weighed. Infarct size was expressed as a percentage of the area at risk. […]
row,SMILES,"infarct size plotted as a function of area at risk, versus control regression line"
1,"FCOC(C(F)(F)F)C(F)(F)F [SEVO, sevoflurane]",infarcts were smaller than in the control group
2,"FC(F)OC(F)C(F)(F)F (stereo not drawn) [DES, desflurane]",infarct size comparable to controls
3,"FC(F)OC(F)(F)C(F)Cl (stereo not drawn) [ENF, enflurane]",infarcts were smaller than in the control group
4,"FC(F)OC(Cl)C(F)(F)F (stereo not drawn) [ISO, isoflurane]",infarcts were smaller than in the control group

# Same assay, conditions: i.v. emulsion prior to coronary artery occlusion
row,SMILES,cardioprotection (protection against myocardial ischemia-reperfusion injury)
1,"FCOC(C(F)(F)F)C(F)(F)F [SEVO, sevoflurane]",provided protection against myocardial ischemia-reperfusion injury; also recorded: adequate protection against myocardial ischemia-reperfusion injury; also recorded: significant reduction in the myocardial infarct size
2,"FC(F)OC(F)C(F)(F)F (stereo not drawn) [DES, desflurane]",unable to confer cardioprotection; also recorded: did not confer cardioprotection
3,"FC(F)OC(Cl)C(F)(F)F (stereo not drawn) [ISO, isoflurane]",provided protection against myocardial ischemia-reperfusion injury; also recorded: adequate protection against myocardial ischemia-reperfusion injury; also recorded: significant reduction in the myocardial infarct size

# Same assay, conditions: i.v. emulsion prior to coronary artery occlusion; listed as Enflurane
row,SMILES,cardioprotection (protection against myocardial ischemia-reperfusion injury)
1,"FC(F)OC(F)(F)C(F)Cl (stereo not drawn) [ENF, enflurane]",provided protection against myocardial ischemia-reperfusion injury

# Same assay, conditions: i.v. emulsion prior to coronary artery occlusion; listed as enflurane
row,SMILES,cardioprotection (protection against myocardial ischemia-reperfusion injury)
1,"FC(F)OC(F)(F)C(F)Cl (stereo not drawn) [ENF, enflurane]",adequate protection against myocardial ischemia-reperfusion injury; also recorded: significant reduction in the myocardial infarct size

# Same assay, conditions: infarct size as percentage of area at risk; i.v. emulsion 10 ml/h 30 min, stopped 30 min before occlusion
row,SMILES,IF/AAR [%]
1,"FCOC(C(F)(F)F)C(F)(F)F [SEVO, sevoflurane]",20.5 ± 2.3
2,"FC(F)OC(F)C(F)(F)F (stereo not drawn) [DES, desflurane]",38.5 ± 6.7
3,"FC(F)OC(F)(F)C(F)Cl (stereo not drawn) [ENF, enflurane]",20.0 ± 2.8
4,"FC(F)OC(Cl)C(F)(F)F (stereo not drawn) [ISO, isoflurane]",18.1 ± 2.6

# Same assay, conditions: infarct weight
row,SMILES,IF WT [g]
1,"FCOC(C(F)(F)F)C(F)(F)F [SEVO, sevoflurane]",0.19 ± 0.04
2,"FC(F)OC(F)C(F)(F)F (stereo not drawn) [DES, desflurane]",0.50 ± 0.15
3,"FC(F)OC(F)(F)C(F)Cl (stereo not drawn) [ENF, enflurane]",0.21 ± 0.02
4,"FC(F)OC(Cl)C(F)(F)F (stereo not drawn) [ISO, isoflurane]",0.18 ± 0.03

# System: not listed separately
# Experiment: Blood concentration of anesthetics by GC and conversion to MAC-equivalents
# Format: in vivo, rabbit
# Details: Baseline
# Method: as §2
# Blood concentrations as measured by GC were converted to their MAC-equivalent values by calculations described below. Initially “n”, or the number of moles of HVA in 1 L of alveolar gas during exposure to 1.0 MAC of the HVA was calculated. The ideal gas law n=PV/RT is used to calculate the number of moles of HVA present at 1 MAC in the alveolar gas where: V=1 L, T=273+37=310° (K); and R=0.0821 (universal gas constant). P or pressure was determined taking into account the vapor pressure of water at 37° C. which is 47.1 torr, and the volume percent of the HVA. Volume percentages of HVAs (MAC values) were obtained from literature values determined in rabbits (Scheller et al. Can. J. Anaesth. 1988, 35: 133-136; Drummond, J C Anesthesiology 1985; 62: 336-8, and Doorley et al. Anesthesiology 1988; 69, 89-91), and are presented in Table 8.
# The number of moles of the HVA in 1 L at 37° C. at 1 MAC in rabbits was then used to determine the concentration of the HVA present in blood by using known blood/gas partition values (also known as λ). Blood gas partition values for the HVAs used in the study are show in Table 8. The value for “x” (or the equivalent blood concentration of the HVA at 1 MAC at 37° C. in rabbit) is then determined by the equation: x=λn
# To express a measured blood concentration of an HVA as a MAC-equivalent value, the measured blood concentration is divided by x. The MAC equivalent values shown in Table 8 were calculated according to the above from the blood concentrations observed (see Table 7).
row,SMILES,Blood Concentration [mM]
1,"FCOC(C(F)(F)F)C(F)(F)F [SEVO, sevoflurane]",0
2,"FC(F)OC(F)C(F)(F)F (stereo not drawn) [DES, desflurane]",0
3,"FC(F)OC(F)(F)C(F)Cl (stereo not drawn) [ENF, enflurane]",0
4,"FC(F)OC(Cl)C(F)(F)F (stereo not drawn) [ISO, isoflurane]",0

# Same assay, conditions: Infusion (end of 30 min, 10 ml/h i.v. infusion)
row,SMILES,Blood Concentration [mM]
1,"FCOC(C(F)(F)F)C(F)(F)F [SEVO, sevoflurane]",0.15 ± 0.01
2,"FC(F)OC(F)C(F)(F)F (stereo not drawn) [DES, desflurane]",0.18 ± 0.03
3,"FC(F)OC(F)(F)C(F)Cl (stereo not drawn) [ENF, enflurane]",0.31 ± 0.03
4,"FC(F)OC(Cl)C(F)(F)F (stereo not drawn) [ISO, isoflurane]",0.18 ± 0.06

# Same assay, conditions: Memory (30 min after infusion, just before coronary occlusion)
row,SMILES,Blood Concentration [mM]
1,"FCOC(C(F)(F)F)C(F)(F)F [SEVO, sevoflurane]",0.02 ± 0.00
2,"FC(F)OC(F)C(F)(F)F (stereo not drawn) [DES, desflurane]",0.03 ± 0.02
3,"FC(F)OC(F)(F)C(F)Cl (stereo not drawn) [ENF, enflurane]",0.06 ± 0.01
4,"FC(F)OC(Cl)C(F)(F)F (stereo not drawn) [ISO, isoflurane]",0.04 ± 0.02

# Same assay, conditions: i.v. emulsion
row,SMILES,"Observed Blood Concentration following 30 min, 10 mL/h Infusion [mM]"
1,"FCOC(C(F)(F)F)C(F)(F)F [SEVO, sevoflurane]",0.15
2,"FC(F)OC(F)C(F)(F)F (stereo not drawn) [DES, desflurane]",0.18
3,"FC(F)OC(F)(F)C(F)Cl (stereo not drawn) [ENF, enflurane]",0.31
4,"FC(F)OC(Cl)C(F)(F)F (stereo not drawn) [ISO, isoflurane]",0.18

# Same assay, conditions: measured blood concentration divided by x
row,SMILES,"Observed Blood Concentration following 30 min, 10 mL/h Infusion [MAC-Equivalents]"
1,"FCOC(C(F)(F)F)C(F)(F)F [SEVO, sevoflurane]",0.16
2,"FC(F)OC(F)C(F)(F)F (stereo not drawn) [DES, desflurane]",0.13
3,"FC(F)OC(F)(F)C(F)Cl (stereo not drawn) [ENF, enflurane]",0.15
4,"FC(F)OC(Cl)C(F)(F)F (stereo not drawn) [ISO, isoflurane]",0.17

# System: not given
# Experiment: not given
# Details: literature values determined in rabbits; cited from earlier work
row,SMILES,Average MAC [% v/v]
1,"FCOC(C(F)(F)F)C(F)(F)F [SEVO, sevoflurane]",3.7
2,"FC(F)OC(F)C(F)(F)F (stereo not drawn) [DES, desflurane]",8.9
3,"FC(F)OC(F)(F)C(F)Cl (stereo not drawn) [ENF, enflurane]",2.86
4,"FC(F)OC(Cl)C(F)(F)F (stereo not drawn) [ISO, isoflurane]",2.05

# System: not listed separately
# Experiment: Warming of emulsion at 37° C. for 2 h before infusion
# Format: physicochemical
# Details: syringe and extension tubing
# Method: as §1
# All anesthetics were used under equivalent experimental conditions, as indicated previously (i.e., warmed for two hours at body temperature before infusion).
# Despite efforts to remove the bubbles, it was impossible to eliminate all bubbles, and some were likely infused during the infusion period. Desflurane results should therefore be interpreted with the constraints of this experimental limitation.
row,SMILES,behaviour of emulsion on warming to body temperature
1,"FC(F)OC(F)C(F)(F)F (stereo not drawn) [DES, desflurane]",bubbles accumulated in the syringe and extension tubing

# Source: patent US7999011B2, “Method for cardioprotection and neuroprotection by intravenous administration of halogenated volatile anesthetics” (Baxter International Inc., priority 2002, dated 2011)
